From paper PMC5608804, “Stepwise Evolution Improves Identification of Diverse Peptides Binding to a Protein Target” (Scientific Reports, 2017)

Molecular target: T1, streptavidin (Streptomyces avidinii, UniProt P22629)
T1 construct: purchased GE Healthcare (Little Chalfont, UK)
Experiment: Cy5-streptavidin binding on HotSpot discovery array, 5-mer L-peptide library
Details: 5-mer L-peptide library array, Cy5-streptavidin; from average of three arrays
From the text: To identify hotspot sequences that bind to streptavidin (SA), we bound Cy5-SA to an array library of 2,476,099 5-mer L-peptides synthesized with 19 of 20 natural amino acids (excluding cysteine). The fluorescence signal intensity was aggregated across three independently synthesized arrays; then the 2,047 peptides with a signal-to-background ratio (S/B) >4 were selected. The data was further filtered to select 1,100 peptides for which signal intensities were highly correlated on all 3 arrays (the percentage of mean deviation to mean was <10%, see Supplementary dataset Table 2A). Most selected sequences (1,019 of 1,100) contained HP, PQ, or PM sequences: their presence would be expected in the well-known HPQ and HPM streptavidin binders[13]–[18].
The comprehensive peptide library included 2,476,099 5-mer peptides synthesized in a single copy with 19 of 20 L- or D-amino acids (excluding cysteine). Libraries were flanked on both N- and C-termini by linkers of 1 or 3 amino acids using a 3:1 glycine-serine mixture.
Cy5™-streptavidin (Cy5-SA) was purchased from GE Healthcare (Little Chalfont, UK). Freshly deprotected arrays were used in each experiment. Streptavidin binding to all arrays was performed with 0.5 µg/ml Cy5-SA either in binding buffer containing 10 mM Tris-HCl (pH 7.4), 1% alkali-soluble casein (EMD Millipore), 0.05% Tween-20 or in 10 mM Tris-HCl (pH 7.4), 4% BSA (Roche, Basel, Switzerland), 0.05% Tween-20 in a 30 mL PAP Jar container (Evergreen Scientific, Vernon, CA) overnight at 4° C. After incubation, arrays were washed in 20 mM Tris-HCl (pH 7.8), 0.2 M NaCl, 1% SDS or 1X TBS (pH 7.4) for 30 sec followed by a 1 min wash in water, and then dried by spinning in a microcentrifuge equipped with an array holder.
Cy5 fluorescence intensity of the arrays was measured with an MS200 scanner (Roche NimbleGen, Madison, WI) at resolution 2 µm, wavelength 635 nm, gain 25%, and laser intensity 100%. Cy5 signal intensities were extracted using Image Extraction Software (Roche NimbleGen). Data pre-processing, normalization, and statistical tests were performed using the language R. Data visualization and analysis was performed with the Spotfire 6.5.0 (Tibco, Boston, MA) software platform. Distance analysis and principle component analysis of distance matrices were performed with the R package PEPLIB[19].

T1 sequence (P22629 25-183): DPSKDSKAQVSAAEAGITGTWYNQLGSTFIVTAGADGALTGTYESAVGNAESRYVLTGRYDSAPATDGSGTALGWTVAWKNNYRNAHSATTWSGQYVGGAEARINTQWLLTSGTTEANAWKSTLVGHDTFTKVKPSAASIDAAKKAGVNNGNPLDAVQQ

| Substance | S/B (signal to background ratio) |
| --- | --- |
| YHPQT | 25.8 |
| EHPQR | 45.0 |
| NKHPM | 20.7 |
| MHPQV | 55.8 |
| TYHPM | 50.6 |
| YGHPQ | 210.5 |
| NHPQA | 121.8 |
| GHPQG | 135.5 |
| WRHPM | 120.0 |
| TTHPM | 29.8 |
| LSHPM | 55.5 |
| DHHPM | 32.9 |
| EHHPM | 31.0 |
| FTHPQ | 177.7 |
| HPQGK | 29.8 |
| HPQSS | 28.2 |
| RNHPM | 54.6 |
| STHPQ | 139.4 |
| NGHPQ | 144.3 |
| PAWAH [L-amino acid 5-mer array peptide] | 50.0 |
| SHHPQ | 155.1 |
| TFHPM | 52.6 |
| MHPMG | 42.9 |
| WSHPQ | 215.6 |
| PIHPM | 24.8 |
| QHPQG | 122.5 |
| LGAFH [L-amino acid 5-mer array peptide] | 52.3 |
| QRHPQ | 154.5 |

Same assay, conditions: 5-mer L-peptide library array, Cy5-streptavidin; from the average of three arrays

| Substance | S/B (signal to background ratio) |
| --- | --- |
| HFHPM | 76.4 |
| DNHPQ | 74.6 |
| KHPQG | 73.1 |
| HPQSG | 90.1 |
| NKHPQ | 85.9 |
| HPQFT | 92.5 |
| YGHPM | 108.1 |
| NEHPQ | 58.6 |
| VAHPQ | 118.6 |
| SDHPQ | 92.6 |
| HPQGT | 67.0 |
| YHHPM | 85.0 |
| HPQYN | 66.1 |
| AHPQS | 79.9 |
| WHPMN | 67.3 |
| YHPQF | 105.0 |
| RGHPM | 58.1 |
| KHPQA | 92.8 |

Same assay, conditions: 5-mer L-peptide library, from the average of three arrays

| Substance | S/B (signal to background ratio) |
| --- | --- |
| HPAYT | 5.1 |
| MGNHF [L-amino acid 5-mer array peptide] | 4.3 |
| RHPMT | 5.1 |
| WYHHP | 5.0 |
| HPMSR | 4.4 |
| HPMHM | 4.4 |
| HPMFI | 4.7 |
| KHPMM | 4.9 |

Same assay, conditions: average of three arrays, L-peptide 5-mer library

| Substance | S/B (signal to background ratio) |
| --- | --- |
| MGNHF [L-amino acid 5-mer array peptide] | 4.3 |
| WPPSL [L-amino acid 5-mer array peptide] | 7.7 |
| NWDVI [L-amino acid 5-mer array peptide] | 5.3 |
| RHDLY [L-amino acid 5-mer array peptide] | 6.6 |
| PAWAH [L-amino acid 5-mer array peptide] | 50.0 |
| LGAFH [L-amino acid 5-mer array peptide] | 52.3 |
| LGGYH [L-amino acid 5-mer array peptide] | 6.1 |

Same assay, conditions: signal to background ratio; 5-mer L-peptide library array, Cy5-streptavidin

| Substance | S/B |
| --- | --- |
| HPAFM | 5.7 |
| THPMR | 8.7 |
| DKHPM | 18.2 |
| EHPQI | 6.3 |
| HPMQA | 6.4 |
| HPQQD | 7.4 |
| HPQSW | 18.3 |
| FHPQL | 7.4 |
| WPPSL [L-amino acid 5-mer array peptide] | 7.7 |
| PHPMN | 14.3 |
| HPMGW | 18.2 |
| HPQRH | 8.8 |
| HPQST | 12.9 |
| HPTPW | 15.1 |
| NWDVI [L-amino acid 5-mer array peptide] | 5.3 |
| IHPQK | 11.6 |
| HPQHY | 11.4 |
| HPMAF | 18.0 |
| HPMNE | 5.7 |
| RHDLY [L-amino acid 5-mer array peptide] | 6.6 |
| HPMYH | 13.0 |
| HPMRY | 5.8 |
| HPQYR | 7.0 |
| HPQRQ | 9.1 |
| RHPQE | 8.3 |
| DHPMM | 5.6 |
| LGGYH [L-amino acid 5-mer array peptide] | 6.1 |
